Series [1] is described as follows: Fluorescence emission spectra in water (excimer band, aggregation). Conditions: 40 μM. The series is classed as physicochemical. How it is done: (§1) In order to assess whether the dissolved peptoids form aggregates, fluorescence spectra were determined for P18 and P21 (which comprise Ns1npe) dissolved in water. Aggregation of peptoids with Ns1npe groups has been reported to be associated with an excimer band at 392 nm [Fuller et al., Org. Lett. 2013, 15:5118-5121]. In addition, CD spectra of P21 were determined at various concentrations ranging from 40 to 180 μM in water.

A short description of series [2]: Circular dichroism (CD) spectra of peptoids in water (temperature and concentration dependence). Conditions: for Aggregation in water from concentration dependence of CD spectra: 40 to 180 μM. The series is classed as physicochemical. How it is done: Circular dichroism (CD) measurements were performed using a J-810-150S circular dichroism spectropolarimeter (Jasco). Spectra were obtained in a 1 mm path-length fused quartz cell. Prior to taking measurements, 5 mM stock oligomer solution was constituted in 100% water. The appropriate dilutions were made immediately before the measurements. Eight scans were taken for each sample at a scan rate of 1 nm/second at 1 nm increments. Data are expressed in terms of per-residue molar ellipticity (degrees*cm^2/dmol) calculated per mole of amide groups present.
as §1
Similarly, CD spectra of P2, P5 and P8 (which comprise Nspe rather than Ns1npe as in P18 and P21) were determined in order to assess whether the dissolved peptoids form aggregates in water.
(In general: Circular dichroism is widely used to follow secondary structure.)

The nature of series [3]: General method for water solubility test (gradual addition of water to 1 mg peptoid until clear). The series is classed as physicochemical. Here is the method:
1 mg peptoid was placed in an Eppendorf container and water was added gradually (e.g., […] per addition) until a clear solution was obtained. The solubility test was repeated three times and average values are presented. The limit of the test was typically 2.0×10^2 mg/liter (i.e., 1 mg per 5 ml).
Water solubility tests were carried out by a gradual addition of 5 μl distilled water to 1 mg peptoid until a clear solution was obtained. This assay was repeated three times and results were averaged.

Series [4] is described as follows: Selectivity towards Cu^2+ by UV-visible absorption spectra (metal ion mixture vs Cu^2+-complex). The series is classed as binding. The conditions noted are these: water; 1 equivalent peptoid, mixture of Cu^2+, Co^2+, Zn^2+, Fe^2+, Mn^2+ and Ni^2+. How it is done:
UV-visible spectrometry measurements were performed using a Cary™ 60 UV-Vis spectrophotometer (Agilent) with Czerny-Turner monochromator. In a typical UV-visible experiment, 10 μl of a peptoid solution (5 mM) was diluted in 3 ml H2O (to obtain a 17 μM concentration) and the UV-visible spectrum was measured. Afterwards 1 equivalent of Cu^2+ (10 μl, 5 mM) or solution containing mixtures of metal ions (1 equivalent Cu^2+, Co^2+, Zn^2+, Mn^2+, Ni^2+ and Fe^3+, 5 mM, 10 μl) was added and the spectrum was measured again.
In order to evaluate the selectivity of P33 and P34 towards Cu^2+, 1 equivalent of each peptoid in water was added to 1 equivalent of a mixture solution containing the metal ions Cu^2+, Co^2+, Zn^2+, Fe^2+, Mn^2+ and Ni^2+, and UV-visible absorption spectra were recorded and compared to UV-visible absorption of Cu^2+-complexes of the peptoids. It has been previously shown that comparing UV-visible absorption spectra is a highly reliable tool to assess the selectivity of the peptoid chelators.

For series [5] the following is noted: literature report (Baskin & Maayan 2016); cited from earlier work.

Several values for one entry are separate records, joined by “and”; a condition that tells them apart may be missing. Equal values may be shown once. Read-outs that look alike come from different tables or passages of the source. Starred links: 1 amine or outer side, 2 acyl side, 3 side chain; linkers in the order of their positions; H or OH if unused. Non-standard residues stand in square brackets, D forms with d. Residues, ends and D or L forms follow the SMILES beside them. *: point of attachment. N(CH2CH2O-4'-Tpy)Gly = O=C(O)CNCCOc1cc(-c2ccccn2)nc(-c2ccccn2)c1; Acetyl(2-(piperazin-1-yl)) = O=C(CN1CCNCC1)*; X2 = O=C(CN(Cc1ccc2cccc(O)c2n1)[*:1])[*:2]; X4 = O=C(CN1CCCN([*:1])CC1)[*:2]; Nspe = C[C@H](NCC(=O)O)c1ccccc1; X1 = O=C(CN1CCN([*:1])CC1)[*:2]; X5 = NC(=O)CN1CCN(*)CC1; X3 = O=C(CN1CCCNCC1)*

As to `C[C@@H](c1cccc2ccccc12)N(CC(N)=O)C(=O)CN(C(=O)CN(C(=O)CN(C(=O)CN1CCN(C(=O)CN2CCN(C(=O)CN3CCNCC3)CC2)CC1)[C@@H](C)c1cccc2ccccc12)[C@@H](C)c1cccc2ccccc12)[C@@H](C)c1cccc2ccccc12` [Peptoid P21, (Ns1npe)4-(Npz)3], in series [1], the “Excimer band near 392 nm (aggregation)” value is “no excimer band was observed”. Also, in series [2], the “Aggregation in water from concentration dependence of CD spectra” value (shortened to “Aggregation in water”) is on record as “some concentration-dependent aggregation”. Besides, in series [3], the solubility (in general, how much of the substance goes into solution per volume) is 176 mg/mL.

On to `C[C@@H](c1ccccc1)N(CC(N)=O)C(=O)CN(C(=O)CN(C(=O)CN(C(=O)CN(C(=O)CN(C(=O)CN1CCNCC1)[C@@H](C)c1ccccc1)[C@@H](C)c1ccccc1)[C@@H](C)c1ccccc1)[C@@H](C)c1ccccc1)[C@@H](C)c1ccccc1` [Peptoid P2, (Nspe)6-Npz] ({Acetyl(2-(piperazin-1-yl))}-[Nspe][Nspe][Nspe][Nspe][Nspe][Nspe]-NH2), for which the “Change of CD spectrum (helical structure) in water with temperature” value in series [2] (0° C. to 90° C.) was “does not change significantly”. Further, the “Aggregation in water” value in series [2] is recorded as “no aggregation”. Moreover, the solubility is ~900 µM and 1000 µg/mL in series [3]; 1.66 mg/mL in series [3] (pH 4.5); 1.28 mg/mL in series [3] (pH 7.5); < 0.2 mg/mL in series [3] (pH 10.5).

On to `C[C@@H](c1ccccc1)N(CC(N)=O)C(=O)CN(C(=O)CN(C(=O)CN(C(=O)CN(C(=O)CN(C(=O)CN1CCN(C(=O)CN2CCNCC2)CC1)[C@@H](C)c1ccccc1)[C@@H](C)c1ccccc1)[C@@H](C)c1ccccc1)[C@@H](C)c1ccccc1)[C@@H](C)c1ccccc1` [Peptoid P5, (Nspe)6-(Npz)2] ({Acetyl(2-(piperazin-1-yl))}-[X1][Nspe][Nspe][Nspe][Nspe][Nspe][Nspe]-NH2), for which the “Aggregation in water” value in series [2] is reported as “no aggregation”. Moreover, in series [3], the “Water solubility relative to that of P2” value is listed as “over 50 times” and the concentration in solution (solubility) came to 58 mg/mL. The “Water solubility relative to that of P2 at pH 10.5” value in series [3] (pH 10.5) turned out to be 30 times.

In the case of `C[C@@H](c1ccccc1)N(CC(N)=O)C(=O)CN(CCOc1cc(-c2ccccn2)nc(-c2ccccn2)c1)C(=O)CN(C(=O)CN(C(=O)CN(Cc1ccc2cccc(O)c2n1)C(=O)CN(C(=O)CN1CCNCC1)[C@@H](C)c1ccccc1)[C@@H](C)c1ccccc1)[C@@H](C)c1ccccc1` [Peptoid P33, Nspe-Ntrp-(Nspe)2-Nhq-Nspe-Npz] ({Acetyl(2-(piperazin-1-yl))}-[Nspe][X2][Nspe][Nspe][N(CH2CH2O-4'-Tpy)Gly][Nspe]-NH2; N-terminus assumed), the concentration in solution in series [3] (solubility) was 244 mg/mL. In series [4], the “Selective binding to Cu^2+” value is listed as “does not selectively bind to Cu^2+”.

Take `C[C@H](NCC(=O)N(CC(=O)N(CC(=O)N(CC(=O)N(CCOc1cc(-c2ccccn2)nc(-c2ccccn2)c1)CC(=O)N(CC(N)=O)[C@@H](C)c1ccccc1)[C@@H](C)c1ccccc1)[C@@H](C)c1ccccc1)Cc1ccc2cccc(O)c2n1)c1ccccc1` [Peptoid P32, reference compound] (H-[Nspe][X2][Nspe][Nspe][N(CH2CH2O-4'-Tpy)Gly][Nspe]-NH2; N-terminus assumed): the solubility in series [3] was < 0.2 mg/mL. Besides, the “Selective chelation of Cu^2+ (reported)” value in series [5] is given as “selective peptoid chelator for Cu^2+”.

As to `C[C@@H](c1cccc2ccccc12)N(CC(N)=O)C(=O)CN(C(=O)CN(C(=O)CN(C(=O)CN1CCN(C(=O)CN2CCNCC2)CC1)[C@@H](C)c1cccc2ccccc12)[C@@H](C)c1cccc2ccccc12)[C@@H](C)c1cccc2ccccc12` [Peptoid P18, (Ns1npe)4-(Npz)2], the “Excimer band near 392 nm (aggregation)” value in series [1] is “no excimer band was observed”. The same compound registered a solubility in series [3] of 13.3 mg/mL.

As for `C[C@H](c1ccccc1)N(CCC(N)=O)C(=O)CCN(C(=O)CCN(C(=O)CCN(C(=O)CCN(C(=O)CCN[C@H](C)c1ccccc1)[C@H](C)c1ccccc1)[C@H](C)c1ccccc1)[C@H](C)c1ccccc1)[C@H](C)c1ccccc1` [Peptoid P24, reference compound], in series [3], the solubility is < 0.2 mg/mL.

For the compound `C[C@@H](c1ccccc1)N1CC(=O)N(CC(N)=O)CCCN2CCN(CC2)CC(=O)N([C@@H](C)c2ccccc2)CC(=O)N([C@@H](C)c2ccccc2)CC(=O)N([C@@H](C)c2ccccc2)CC(=O)N([C@@H](C)c2ccccc2)CC(=O)N([C@@H](C)c2ccccc2)CC1=O` [Peptoid P4, Npl-(Nspe)6-Npz (cyclic)], in series [3], the solubility is ~700 µM.

In series [3], `C[C@H](NCC(=O)N(CC(=O)N(CC(=O)N(CC(=O)N(CCOc1cc(-c2ccccn2)nc(-c2ccccn2)c1)CC(=O)N(CC(=O)N1CCN(CC(N)=O)CC1)[C@@H](C)c1ccccc1)[C@@H](C)c1ccccc1)[C@@H](C)c1ccccc1)Cc1ccc2cccc(O)c2n1)c1ccccc1` [Peptoid P34, Npz-Nspe-Ntrp-(Nspe)2-Nhq-Nspe] (H-[Nspe][X2][Nspe][Nspe][N(CH2CH2O-4'-Tpy)Gly][Nspe]-X5; N-terminus assumed) showed a solubility of 8.3 mg/mL. In series [4], the “Selective binding to Cu^2+” value was “selectively binds to Cu^2+”.

Turning to `C[C@@H](c1ccccc1)N(CC(N)=O)C(=O)CN(C(=O)CN(C(=O)CN(C(=O)CN(C(=O)CN(C(=O)CN1CCCN(C(=O)CN2CCCNCC2)CC1)[C@@H](C)c1ccccc1)[C@@H](C)c1ccccc1)[C@@H](C)c1ccccc1)[C@@H](C)c1ccccc1)[C@@H](C)c1ccccc1` [Peptoid P8, (Nspe)6-(Nhpz)2] (X3-[X4][Nspe][Nspe][Nspe][Nspe][Nspe][Nspe]-NH2), the “Aggregation in water” value in series [2] is listed as “no aggregation”. The amount in solution in series [3] (solubility) came to 510 mg/mL.
